Laboratory results: US8772445B2, “Production and use of antitumoral cyclodepsipeptides” (Helmholtz-Zentrum Fuer Ozeanforschung Kiel (Geomar), priority 2008, dated 2014)

Experiments:
Experiment in all cases: crystal violet assay, antiproliferative effect against tumor cells
Type in all cases: cell-based
[1] = test system: pancreatic tumor cell line Panc89; details: Panc89, at 1 μg/mL, on average
Description: (§1) 4) Determination of the Antiproliferative Effect Against Tumor Cells
(§2) The substances Scopularid A and Scopularid B have shown significant inhibitory action against tumor cell lines, in particular pancreatic tumor cell lines Colo357 and Panc89 and also intestinal tumor cell lines HT29 (on average an inhibition between 25-50% at 1 μg/mL). This activity was determined using the crystal violet assay (Siegmund, D. et al. “Death receptor-induced signalling pathways are differentially regulated by gamma interferon upstream of caspase 8 processing.” Mol. Cell. Biol. 2005; 25: 6363-6379).

[2] = test system: pancreatic tumor cell line Colo357; details: for inhibition at 1 µg/mL: Homo sapiens, Colo357, at 1 μg/mL, on average
Description: as §1, §2

[3] = test system: intestinal tumor cell line HT29; details: Homo sapiens, HT-29; HT29, at 1 μg/mL, on average
Description: as §1, §2

`CCCCCCC(C)C1CC(=O)NCC(=O)N[C@@H](C(C)C)C(=O)N[C@H](CC(C)C)C(=O)N[C@@H](C)C(=O)N[C@@H](Cc2ccccc2)C(=O)O1` (stereo partly shown) [Scopularid A] showed an inhibition at 1 µg/mL [1] of 25 to 50%, an inhibition at 1 µg/mL [2] of 25 to 50% and an inhibition at 1 µg/mL [3] of 25 to 50%.

In the case of `CCCCC(C)C1CC(=O)NCC(=O)N[C@@H](C(C)C)C(=O)N[C@H](CC(C)C)C(=O)N[C@@H](C)C(=O)N[C@@H](Cc2ccccc2)C(=O)O1` (stereo partly shown) [Scopularid B], the inhibition at 1 µg/mL [1] is reported as 25 to 50%, the inhibition at 1 µg/mL [2] is reported as 25 to 50% and the “antiproliferative effect against tumor cells (in words)” value ([2]; tumor cell lines, in particular Colo357) is reported as “significant inhibitive effect”. The inhibition at 1 µg/mL [3] was 25 to 50%.
